Measurements reported in publication PMC2978097, “Inhibiting α-Synuclein Oligomerization by Stable Cell-Penetrating β-Synuclein Fragments Recovers Phenotype of Parkinson's Disease Model Flies” (PLoS ONE, 2010).
Each block holds one molecule with its values, some of them ahead of it. Where a SMILES comes first, the peptide text is derived from it. Where no end group is shown, it is not given here. [ ]: non-standard residue; d: D form.

Legend:
α-syn monomers = molecular target: T1, α-syn monomers (Homo sapiens, UniProt P37840); assay: Fluorescence anisotropy titration with α-syn monomers; assay type: binding; details: fluorescent anisotropy, increasing amounts of α-syn monomers titrated into the peptide solution; Figure S1; read-out: affinity constant (Kd) towards α-syn monomers
T1 construct: made in house; host or cells: E. coli BL21 (pT7-7)
Method: To evaluate the binding of the peptides to α-syn, increasing amounts of α-syn monomers were titrated into a solution of the modified β-syn 36 peptide and anisotropy was determined (Figure S1). The affinity constant was determined to be ∼1 µM.
Supplementary file pone.0013863.s001.tif: Figure S1 The affinity of the modified β-syn 36 containing tryptophan instead of tyrosine towardsα-syn monomers was examined using fluorescent anisotropy. Kd = 1 µM. (0.02 MB TIF) Click here for additional data file.

[1] = In vitro peptide stability in mouse brain homogenate; assay type: in vitro ADME; details: 20% peptide solution (1 mM in Tris pH 7.6) and 80% of 10% ICR mouse brain homogenate (0.5% Triton X-100), 37°C, two hours; C18 HPLC, UV 280 nm peak area vs sample in Tris buffer; Figure 5
Method: Peptides were dissolved to give a 1 mM solution in […] (pH 7.6). 120 µl of the peptide solution was diluted into a 10% freshly-made homogenate of mouse brain excluding the cerebellum (in 1× Tris buffer and 0.5% Triton X-100). A mixture containing 20% peptide solution and 80% mouse brain homogenate was incubated at 37°C with delicate shaking for two hours. The enzyme reaction was stopped by adding 0.1 M HCl solution, followed by denaturation of the protein using methanol and incubation at 20°C for one hour. The precipitated proteins were centrifuged at 29,000×g for 20 minutes at 4°C and the supernatant containing the peptide was concentrated under vacuum and separated using a C18 HPLC column. The area of the peak (UV absorbance at 280 nm) corresponding to the intact peptide was compared with an equivalent sample incubated in […].
Figure 5 Serum stability of β-syn 36 peptides. Brain extract of wild type ICR white mouse was incubated with the peptides β-syn 36 and retro-inverso β-syn 36 for two hours and loaded on a C18 column for serum stability analysis. (A) Spectra of the β-syn 36 peptide (blue) and β-syn 36 peptide with brain extract (red). […] (C) Quantification of the area under the peak. The area of the peptide in time ‘0’ was determined as 100%. […]

PC12 cells = assay: Toxicity towards cultured PC12 cells; assay type: cell-based; details: concentrations up to 1 mM in the growing medium, twenty four hours; data not shown
Description: Our best inhibitor candidate was the β-syn 36 peptide which inhibited both the soluble and insoluble fibrillar aggregates of α-syn.

Kd (α-syn monomers): 1 µM
Molecule: CC(C)C[C@@H](NC(=O)[C@H](NC(=O)CN)C(C)C)C(=O)N[C@H](Cc1c[nH]c2ccccc12)C(=O)N[C@@H](C(=O)NCC(=O)N[C@H](CO)C(=O)N[C@H](CCCCN)C(=O)N[C@@H](C(=O)N[C@H](CCCNC(=N)N)C(=O)O)[C@H](C)O)C(C)C [Y39W β-syn 36D] (H-G[dV][dL][dW][dV]G[dS][dK][dT][dR]-OH)

stability in mouse brain homogenate (called serum stability) [1]: more stable than the unmodified β-syn 36
Molecule: CC(C)C[C@@H](NC(=O)[C@@H](Cc1ccc(O)cc1)NC(=O)[C@H](NC(=O)CNC(=O)[C@@H](CO)NC(=O)[C@@H](CCCCN)NC(=O)[C@H](NC(=O)[C@H](N)CCCNC(=N)N)[C@H](C)O)C(C)C)C(=O)N[C@@H](C(=O)NCC(=O)O)C(C)C [retro-inverso β-syn 36] (H-[dR][dT][dK][dS]G[dV][dY][dL][dV]G-OH)

Molecule: GVLYVGSKTR [β-syn 36]
toxicity towards cultured cells (PC12) (PC12 cells): no toxicity
